Experimental data as given in patent US8765808B2, “Treatment or prevention of cancer and precancerous disorders” (CHS Pharma, Inc., priority 2005, dated 2014).
Read-outs that look alike come from different tables or passages of the source.

How the values were obtained:
[1] = system: RKO colon cancer cell line; assay: MTS cell viability after pretreatment and oxidative stress, RKO colon cancer cells; type: cell-based, human; details: other NSAIDs at comparable active concentrations, compared to sulindac
Method: (§1) RKO is a human colon carcinoma cell line developed by Michael Brattain [Brattain, 1984]. […] The cells were maintained in minimum essential medium (Eagle) supplemented with 2 mM L-glutamine, Earle's BSS containing 1.5 g/L sodium bicarbonate, 0.1 mM non-essential amino acids, 1.0 mM sodium pyruvate and 10% fetal bovine serum.
Experiments were performed with the RKO colon cancer cells that were pretreated with 500 μM sulindac using TBHP.

[2] = system: SCC-25 squamous cell skin cancer cell line; assay: MTS cell viability after pretreatment and oxidative stress, SCC skin cancer cells; type: cell-based, human; details: for sensitizing skin cancer cells to killing by TBHP: other NSAIDs at comparable active concentrations, compared to sulindac; for cancer killing effect of epimers, SCC cells: 500 μM 24 hours, then TBHP 2 hours (FIG. 24); for enhancing the killing of skin cancer cells (SCC-25) when exposed to TBHP: 24 hr pretreatment with 500 μM sulindac sulfone, 500 μM SMO or 50 μM sulindac sulfide, TBHP 2 hr (FIG. 14)
Method: as §1, with “SCC-25” for “RKO”, “squamous cell” for “colon”, “J G Rheinwald [Rheinwald, 1981].” for “Michael Brattain [Brattain, 1984].”
The experimental approach was to pretreat SCC cells with sulindac for 24 hr prior to exposure to TBHP for 2 hr. Sulindac (Sigma; S-8139) was freshly prepared as a 1M stock solution in 1M Tris.Cl, pH 8.0. SCC cells were suspended in culture medium containing 10% fetal bovine serum at a cell density of 6×10^5 cells/ml. Cell suspensions containing 500 μM sulindac or no sulindac (Control) were plated in 96 well microtiter plates with a total of 6×10^4 cells per well. The plates were incubated for 24 hr at 37° C. in a 5% CO2 incubator. The culture medium was then removed and the cells washed once with fresh culture medium without serum. After removal of the wash solution, fresh culture medium without serum that contained the indicated final concentration of TBHP was added to the cells for 2 hrs. Serum was omitted from the medium during the two-hour exposure to TBHP since TBHP may be rapidly depleted in the presence of serum.

[3] = system: neonatal rat cardiac myocytes; details: for Amount Formed (sulindac sulfide): Normal Cardiomyocyte, 200 μM epimer, 4 hours, serum-free medium
Method: FIG. 23 is a graph showing the metabolic conversion of the R & S epimers of sulindac to the sulfide form in cardiac myocytes. The amount of sulindac sulfide formed by 10^6 cells incubated with 400 μM sulindac, R, S or RS mixture is measured as a function of time of incubation. […] The absorbance was measured at 330 nm.
To inhibit fibroblast growth, 0.1 mM bromodeoxyuridine was included in the medium for the first 3-5 days after plating. Cell cultures are incubated with sulindac or its individual epimers for specified times.
(§2) After the incubations, the cells were pelleted by low speed centrifugation and lysed by the addition of 200 μl of 100% acetonitrile, followed by vigorous vortexing. The lysate was centrifuged for 15 minutes at 14,000×g to pellet cell debris. 50 μl of the supernatant was transferred to an HPLC autosampler microvial. The separation of metabolites is carried out on a 4.6×75 mm C18 reverse-phase column. […] The metabolites are detected at a wavelength of 330 nm.
(§3) The cells are incubated with 200 μM R- or S-Sulindac epimer for 4 hours in a defined, serum-free medium (EX-CELL^SM). After incubation, the cells are collected, rinsed and lysed with acetonitrile. The cytosolic contents are separated on a C-18 column.

[4] = system: Normal lung cells; assay: Conversion of sulindac epimers to sulindac sulfide in whole cells, normal lung; type: in vitro ADME; details: 200 μM epimer, 4 hours; for Amount Formed (sulindac sulfide): serum-free medium
Method: as §2, §3

[5] = system: lung carcinoma cell line designated A549; assay: MTS cell viability after pretreatment and oxidative stress, lung cancer cells
Method: Cell viability was determined by the [sequence] 96®-Aqueous One Cell Proliferation Assay (Promega) according to the manufacturer's instructions. The assay utilizes a novel tetrazolium compound (3-(4,5-dimethylthiazol-2-yl)-5-(3-carboxymethoxyphenyl)-2-(4-sulfophenyl)-2H-tetrazolium; MTS) and an electron-coupling reagent (phenazine ethosulfate; PES). Metabolically active cells convert the MTS to a water-soluble formazan by the action of cellular dehydrogenases. The amount of formazan produced is measured by absorbance at 490 nm using a colorimetric microtiter plate reader (BIORAD; Model 2550). Absorbance is directly proportional to the number of viable cells.
Experiments using similar methods were performed with a lung carcinoma cell line designated A549. […] Cells were grown in Ham's F12K medium supplemented with final concentrations of 2 mM L-glutamine, 1.6 g/L sodium bicarbonate and 10% fetal bovine serum. Cultures were maintained between 6×10^3-6×10^4 cells/cm^2 in standard tissue culture flasks. The protocol for pretreatment of cells with 500 μM sulindac followed by a two hour exposure to various concentrations of TBHP was the same as that described for the RKO colon cancer cells.
Following a 24 hr pretreatment with 500 μM sulindac, the cells were washed once to remove the excess sulindac before exposure to TBHP for 2 hr.

[6] = system: Cancer Lung cells; assay: Conversion of sulindac epimers to sulindac sulfide in whole cells, lung cancer; type: in vitro ADME; details: 200 μM epimer, 4 hours, serum-free medium
Method: as §2, §3

[7] = system: Cancer Skin (skin SCC) cells; details: 200 μM epimer, 4 hours, serum-free medium
Method: as §2, §3

[8] = system: HeLa cancer cells; details: 200 μM epimer, 4 hours, serum-free medium
Method: as §2, §3

[9] = system: SCC skin cancer cells; assay: Intracellular ROS by indicator dye fluorescence, SCC skin cancer cells
Method: SCC skin cancer cells were plated onto 6-well plates at a cell density of 50-60% confluence. The cultures were pretreated with sulindac (500 uM) for 24 hours followed by the addition of TBHP (100 uM) for two hours. During this period of time, the cell density in the 6-well plates increased to 80-90% confluent.

[10] = system: Normal HEK skin cells (human neonatal epidermal keratinocytes); assay: Intracellular ROS by indicator dye fluorescence, normal HEK skin cells; details: Table 4, alone or after Sul 500 uM
Method: Experimental conditions: Normal HEK skin cells plated onto 6-well plates at cell density of 60-70% confluence. Sulindac (0.5 mM)×24 hours (cell density remained about the same) followed by TBHP×2 hours followed by ROS indicator dye (5 μM)×1 hour (Table 1).
Human neonatal epidermal keratinocytes were plated into 6-well plates at a cell density of 60-70% confluence. The cultures were pretreated with sulindac (500 uM) for 34 hours followed by the addition of different concentrations of TBHP for 2 hours. During this period of time, the cell density in the 6-well plates remained the same (there was no increase in cell proliferation). This was followed by the addition of the ROS indicator dye.

[11] = system: precancerous growths and/or BCC's; assay: Topical sulindac gel followed by hydrogen peroxide solution in patients; details: applied alone to the skin condition
[12] = cited from earlier work
[13] = system: WM-266-4 Melanoma skin cell line; assay: MTS cell viability after pretreatment and oxidative stress, melanoma cells; type: cell-based, human; details: sulindac sulfide pretreatment
[14] = Table 2, Sul 0.5 mM 24 hours and/or TBHP 100 μM 2 hours
[15] = Table 3, Sul 500 μM 24 hours and/or TBHP 100 μM 2 hours

CC(=O)Oc1ccccc1C(=O)O [Acetylsalicylic acid]
sensitizing colon cancer cells to killing by TBHP [1]: ineffective | sensitizing skin cancer cells to killing by TBHP [2]: ineffective

CC1=C(CC(=O)O)c2cc(F)ccc2/C1=C\c1ccc([S+](C)[O-])cc1 (stereo not shown) [R-epimer, R-sulindac sulfoxide]
Amount Formed (sulindac sulfide) [3]: 11.6 picomoles | conversion to the sulfide compared to the S-epimer ([3]; normal cardiac myocytes, 400 μM, time course (FIG. 23)): greater than 10 fold less conversion | R/S (%) [4]: 6% | R/S (%) ([4]; listed as R epimer): < 10% | Amount Formed (sulindac sulfide) [4]: 2.2 picomoles | cancer killing effect of epimers, lung cancer cells [5]: comparable in potency to the sulindac racemic mixture | cancer killing effect of epimers, SCC cells [2]: comparable in potency to the sulindac racemic mixture | Amount Formed (sulindac sulfide) [6]: 7.5 picomoles | Amount Formed (sulindac sulfide) [7]: 35.3 picomoles | Amount Formed (sulindac sulfide) [8]: 9.3 picomoles

CC1=C(CC(=O)O)c2cc(F)ccc2/C1=C\c1ccc([S@+](C)[O-])cc1 [S-epimer, S-sulindac sulfoxide]
Amount Formed (sulindac sulfide) [3]: 120.9 picomoles | Amount Formed (sulindac sulfide) [4]: 35 picomoles | cancer killing effect of epimers, lung cancer cells [5]: comparable in potency to the sulindac racemic mixture | cancer killing effect of epimers, SCC cells [2]: comparable in potency to the sulindac racemic mixture | Amount Formed (sulindac sulfide) [6]: 17.7 picomoles | Amount Formed (sulindac sulfide) [7]: 57 picomoles | Amount Formed (sulindac sulfide) [8]: 7.9 picomoles

CC(C)(C)OO [TBHP, tert-butyl hydroperoxide]
% Cells with ROS Uptake by Fluorescence [9, 14]: 11% | fold increase compared to untreated control [9, 14]: 7 fold | % Cells containing ROS [9, 15]: 11% | fold increase compared to untreated control [9, 15]: 7 fold | ROS levels in SCC skin cancer cells, agent alone ([9]; sulindac 500 uM or TBHP 100 uM alone): enhanced the ROS levels | % Cells containing ROS ([10]; TBHP 200 uM 2 hours): 2% | fold increase compared to untreated control ([10]; TBHP 200 uM 2 hours): 0 fold | % Cells containing ROS ([10]; TBHP 400 uM 2 hours): 5% | fold increase compared to untreated control ([10]; TBHP 400 uM 2 hours): 2 fold | % Cells containing ROS ([10]; TBHP 800 uM 2 hours): 60% | fold increase compared to untreated control ([10]; TBHP 800 uM 2 hours): 20 fold | viable cells without sulindac pretreatment ([5]; 1.5-2.0 mM TBHP, 2 hr, untreated (no sulindac) cells): approximately 50%

O=C(O)Cc1ccccc1Nc1c(Cl)cccc1Cl [diclofenac sodium]
sensitizing colon cancer cells to killing by TBHP [1]: ineffective | sensitizing skin cancer cells to killing by TBHP [2]: ineffective

OO [hydrogen peroxide]
effect on the precancerous or cancerous growth when applied alone [11]: no effect | skin irritation ([12]; 3-8% hydrogen peroxide, 24 hours under occlusive dressing, intact and abraded skin, rabbits): nonirritating | skin irritation ([12]; 10% hydrogen peroxide, 4 hour exposure): slight | skin irritation ([12]; 35% hydrogen peroxide): mild | classification as skin irritant by the European Union criteria ([12]; hydrogen peroxide solutions of 35% or less, rabbits): would not be classified as skin irritants

CC(C)Cc1ccc(C(C)C(=O)O)cc1 (stereo not shown) [ibuprofen]
sensitizing colon cancer cells to killing by TBHP [1]: ineffective | sensitizing skin cancer cells to killing by TBHP [2]: ineffective

CSc1ccc(/C=C2/C(C)=C(CC(=O)O)c3cc(F)ccc32)cc1 [sulindac sulfide]
reducing the cell viability of melanoma cells exposed to TBHP [13]: had activity in reducing the cell viability | reducing the cell viability of lung cancer cells exposed to TBHP ([5]; 250 μM sulindac sulfide 24 hr, TBHP 2 hr (FIG. 15)): had activity in reducing the cell viability | enhancing the killing of skin cancer cells (SCC-25) when exposed to TBHP [2]: not effective

CC1=C(CC(=O)O)c2cc(F)ccc2/C1=C\c1ccc(S(C)(=O)=O)cc1 [sulindac sulfone]
killing effect in all cancer cell studies ([5]; FIG. 15, 500 μM sulindac, 250 μM sulindac sulfone): most potent killing effect | enhancing the killing of skin cancer cells (SCC-25) when exposed to TBHP [2]: effective in enhancing the killing

sulindac methionine sulfoxide [SMO]
enhancing the killing of skin cancer cells (SCC-25) when exposed to TBHP [2]: not effective
